From patent US20240309014A1, “MACROCYCLIC COMPOUNDS AND USES THEREOF” (President and Fellows of Harvard College, priority 2017, published 2024)

What was measured:
[1] = test system: HSC-2-Luc inoculated into tongue; assay: HSC-2 orthotopic transplantation mouse model; assay type: in vivo, nude mice; conditions: Compound (1) 0.09 mg/kg
[2] = test system: human lung cancer cell line NCI-H23; assay: NCI-H23 growth inhibition assay; assay type: cell-based; conditions: NCI-H23, 72 h, 3 days incubation, CellTiter-Glo
Protocol: (§1) In this assay, the growth inhibitory activities of Compound D-6 (Example 26), E-2, G-4, H-2, 1-2, J-1, K-2, L-6, M-3, and N-1 in a human lung cancer cell line NCI-H23 were measured. NCI-H23 cells were maintained in RPM-1640 (Wako Pure Chemical Industries, Ltd., 187-02021) medium containing 10% fetal bovine serum (FBS: Sigma, 172012), and penicillin and streptomycin (Wako Pure Chemical Industries, Ltd., 168-23191) in a 5% CO2 incubator (37° C.). To each well of a 96 well plate (Becton, Dickinson and Company, 353219), 75 μL of NCI-H23 cell suspension adjusted to a concentration of 4×10^4 cells/mL with the culture medium was added, and the cells were incubated overnight in a 5% CO2 incubator (37° C.). On the next day, 25 μL of each compound in three-fold dilution series suspended in the culture medium was added to each well, and the resultant was incubated for 3 days in a 5% CO2 incubator (37° C.). Then, cell viability was determined by CellTiter-Glo® Luminescent Cell Viability Assay (Promega) with EnVision 2103 Multilabel Reader (Perkin-Elmer, Wellesley, MA). Value of the wells containing cells without adding the test substance was defined as 100% and the value of the wells containing no cells was defined as 0%. The concentration of the test substance necessary for inhibiting the cell growth by 50% (i.e., an IC50 value) was calculated, and summarized in Table 14.

[3] = test system: human breast cancer cell line HCC1954; assay: HCC1954 growth inhibition assay (Test Example 24); assay type: cell-based; conditions: HCC1954, 72 h, 3 days incubation, CellTiter-Glo
Protocol: In this assay, the growth inhibitory activities of Compound D-6 (Example 26), E-2, G-4, H-2, I-2, J-1, K-2, L-6, M-3, and N-1 in a human breast cancer cell line HCCl954 were measured. HCC1954 cells were maintained in RPMI-1640 medium modified to contain 2 mM L-glutamine, 10 mM HEPES, 1 mM sodium pyruvate, 4500 mg/L glucose, and 1500 mg/L sodium bicarbonate (ATCC 30-2001) containing 10% fetal bovine serum (FBS: Sigma, 172012), and penicillin and streptomycin (Wako Pure Chemical Industries, Ltd., 168-23191) in a 5% CO2 incubator (37° C.). To each well of a 96 well plate (Becton, Dickinson and Company, 353219), 75 μL of HCC1954 cell suspension adjusted to a concentration of 4×10^4 cells/mL with the culture medium was added, and the cells were incubated overnight in a 5% CO2 incubator (37° C.). On the next day, 25 μL of each compound in three-fold dilution series suspended in the culture medium was added to each well, and the resultant was incubated for 3 days in a 5% CO2 incubator (37° C.). Then, cell viability was determined by CellTiter-Glo® Luminescent Cell Viability Assay (Promega) with EnVision 2103 Multilabel Reader (Perkin-Elmer, Wellesley, MA). Value of the wells containing cells without adding the test substance was defined as 100% and the value of the wells containing no cells was defined as 0%. The concentration of the test substance necessary for inhibiting the cell growth by 50% (i.e., an IC50 value) was calculated, and summarized in Table 14.

MES-SA cells = assay: MES-SA growth inhibition assay; assay type: cell-based; conditions: Homo sapiens, 72 h, 3 days incubation, CellTiter-Glo, read-out: Cell growth inhibition IC50 (nM) MES-SA
Protocol: as §1, with “MES-SA” for “NCI-H23”

[4] = in comparison with Halichondrin B; cited from earlier work
[5] = in vitro and in vivo; cited from earlier work

Row | SMILES | ILS (%) ([1]; single agent, Q7Dx3: cetuximab 5 mg/kg, cisplatin 5 mg/kg) | ILS (%) ([1]; with cetuximab 5 mg/kg, Q7Dx3: cisplatin 5 mg/kg) | IC50 [2] [nM] | IC50 [3] [nM] | IC50 (MES-SA cells) [nM] | stability in aqueous solution [4] | activity relative to Halichondrin B [5]
1 | N.N.[Cl][Pt][Cl] [Cisplatin, cisplatin, reference compound] | 0 | 150 | – | – | – | – | –
2 | C=C1C[C@@H]2CC[C@@]34CC5O[C@H]6[C@@H](O3)[C@H]3O[C@H](CC[C@@H]3O[C@H]6C5O4)CC(=O)O[C@@H]3[C@@H](C)[C@@H]4O[C@@H]5C[C@]6(C[C@@H]7O[C@]8(C[C@H](C)[C@@H]9O[C@H](CO)[C@H](O)C[C@@H]9O8)C[C@H](C)[C@@H]7O6)O[C@@H]5C[C@@H]4O[C@H]3C[C@H]3O[C@@H](CC[C@@H]1O2)C[C@@H](C)C3=C [Compound D-6] | – | – | 0.022 | 0.0104 | 0.0138 | – | –
3 | C=C1C[C@@H]2CC[C@@]34CC5O[C@H]6[C@@H](O3)[C@H]3O[C@H](CC[C@@H]3O[C@H]6C5O4)CC(=O)O[C@@H]3[C@@H](C)[C@@H]4O[C@@H]5C[C@]6(C[C@@H]7O[C@]8(C[C@H](C)[C@@H]9O[C@H](CCO)[C@H](O)C[C@@H]9O8)C[C@H](C)[C@@H]7O6)O[C@@H]5C[C@@H]4O[C@H]3C[C@H]3O[C@@H](CC[C@@H]1O2)C[C@@H](C)C3=C [Compound E-2] | – | – | 0.595 | 0.0805 | 0.856 | – | –
4 | C=C1C[C@@H]2CC[C@@]34C[C@H]5O[C@H]6[C@@H](O3)[C@H]3O[C@H](CC[C@@H]3O[C@H]6[C@H]5O4)CC(=O)O[C@@H]3[C@@H](C)[C@@H]4O[C@@H]5C[C@]6(C[C@@H]7O[C@]8(C[C@H](C)[C@@H]9O[C@H](CCN)[C@H](O)C[C@@H]9O8)C[C@H](C)[C@@H]7O6)O[C@@H]5C[C@@H]4O[C@H]3C[C@H]3O[C@@H](CC[C@@H]1O2)C[C@@H](C)C3=C [Compound G-4] | – | – | 0.136 | 0.0335 | 0.326 | – | –
5 | C=C1C[C@@H]2CC[C@@]34CC5O[C@H]6[C@@H](O3)[C@H]3O[C@H](CC[C@@H]3O[C@H]6C5O4)CC(=O)O[C@@H]3[C@@H](C)[C@@H]4O[C@@H]5C[C@]6(C[C@@H]7O[C@]8(C[C@H](C)[C@@H]9O[C@H](CCOC)[C@H](O)C[C@@H]9O8)C[C@H](C)[C@@H]7O6)O[C@@H]5C[C@@H]4O[C@H]3C[C@H]3O[C@@H](CC[C@@H]1O2)C[C@@H](C)C3=C [Compound I-2] | – | – | 0.103 | 0.00624 | 0.057 | – | –
6 | C=C1C[C@@H]2CC[C@@]34C[C@]5(O)O[C@H]6[C@@H](O3)[C@H]3O[C@H](CC[C@@H]3O[C@H]6C5O4)CC(=O)O[C@@H]3[C@@H](C)[C@@H]4O[C@@H]5C[C@]6(C[C@@H]7O[C@]8(C[C@H](C)[C@@H]9O[C@H](CCO)[C@H](O)C[C@@H]9O8)C[C@H](C)[C@@H]7O6)O[C@@H]5C[C@@H]4O[C@H]3C[C@H]3O[C@@H](CC[C@@H]1O2)C[C@@H](C)C3=C [Compound J-1] | – | – | 0.00992 | 0.00308 | 0.0102 | – | –
7 | C=C1C[C@@H]2CC[C@@]34CC5O[C@H]6[C@@H](O3)[C@H]3O[C@H](CC[C@@H]3O[C@H]6C5O4)CC(=O)O[C@@H]3[C@@H](C)[C@@H]4O[C@@H]5C[C@]6(C[C@@H]7O[C@]8(C[C@H](C)[C@@H]9O[C@H]([C@@H](O)C[C@@H](O)CN)C[C@@H]9O8)C[C@H](C)[C@@H]7O6)O[C@@H]5C[C@@H]4O[C@H]3C[C@H]3O[C@@H](CC[C@@H]1O2)C[C@@H](C)C3=C [Compound K-2] | – | – | 0.461 | 0.07 | 0.341 | – | –
8 | C=C1C[C@@H]2CC[C@@]34C[C@@]5(O)O[C@H]6[C@@H](O3)[C@H]3O[C@H](CC[C@@H]3O[C@H]6[C@H]5O4)CC(=O)O[C@@H]3[C@@H](C)[C@@H]4O[C@@H]5C[C@]6(C[C@@H]7O[C@]8(C[C@H](C)[C@@H]9O[C@H]([C@@H](O)C[C@@H](O)CN)C[C@@H]9O8)C[C@H](C)[C@@H]7O6)O[C@@H]5C[C@@H]4O[C@H]3C[C@H]3O[C@@H](CC[C@@H]1O2)C[C@@H](C)C3=C [Compound L-6] | – | – | 6.81 | 0.269 | 2.79 | – | –
9 | C=C1C[C@@H]2CC[C@@]34CC5O[C@H]6[C@@H](O3)[C@H]3O[C@H](CC[C@@H]3O[C@H]6C5O4)CC(=O)O[C@@H]3[C@@H](C)[C@@H]4O[C@@H]5C[C@]6(C[C@@H]7O[C@]8(C[C@H](C)[C@@H]9O[C@H]([C@@H](O)CCO)C[C@@H]9O8)C[C@H](C)[C@@H]7O6)O[C@@H]5C[C@@H]4O[C@H]3C[C@H]3O[C@@H](CC[C@@H]1O2)C[C@@H](C)C3=C [Compound M-3] | – | – | 0.0199 | 0.0101 | 0.0141 | – | –
10 | C=C1C[C@@H]2CC[C@@]34CC5O[C@H]6[C@@H](O3)[C@H]3O[C@H](CC[C@@H]3O[C@H]6C5O4)CC(=O)O[C@@H]3[C@@H](C)[C@@H]4O[C@@H]5C[C@]6(C[C@@H]7O[C@]8(C[C@H](C)[C@@H]9O[C@H]([C@@H](O)CCN)C[C@@H]9O8)C[C@H](C)[C@@H]7O6)O[C@@H]5C[C@@H]4O[C@H]3C[C@H]3O[C@@H](CC[C@@H]1O2)C[C@@H](C)C3=C [Compound N-1] | – | – | 1.53 | 0.08 | 2.88 | – | –
11 | C=C1C[C@@H]2CC[C@@]34C[C@@]5(O)O[C@H]6[C@@H](O3)[C@H]3O[C@H](CC[C@@H]3O[C@H]6[C@H]5O4)CC(=O)O[C@@H]3[C@@H](C)[C@@H]4O[C@@H]5C[C@]6(C[C@@H]7O[C@]8(C[C@H](C)[C@@H]9O[C@H]([C@@H](O)C[C@@H](O)CO)C[C@@H]9O8)C[C@H](C)[C@@H]7O6)O[C@@H]5C[C@@H]4O[C@H]3C[C@H]3O[C@@H](CC[C@@H]1O2)C[C@@H](C)C3=C [Halichondrin C] | – | – | – | – | – | unstable in aqueous solution in comparison with Halichondrin B | –
12 | C=C1C[C@@H]2CC[C@@]34C[C@H]5O[C@H]6[C@@H](O3)[C@H]3O[C@H](CC[C@@H]3O[C@H]6[C@H]5O4)CC(=O)O[C@@H]3[C@@H](C)[C@@H]4O[C@@H]5C[C@]6(CC7O[C@@]8(C[C@H](C)C7O6)C[C@H](C)[C@@H]6O[C@H](CC(=O)O)[C@H](O)C[C@@H]6O8)O[C@@H]5CC4O[C@H]3C[C@H]3O[C@@H](CC[C@@H]1O2)C[C@@H](C)C3=C (stereo partly shown) [Norhalichondrin B] | – | – | – | – | – | – | much weaker than Halichondrin B
